Source: US11179383B2 (Gilead Sciences, Inc., priority 2018, dated 2021)
pEC50: −log10 of the molar value.

Target: T1, α4β7 integrin (Homo sapiens, UniProt P13612+P26010)
T1 construct: monitoring the capture of α4β7 integrin expressing cells on a recombinant MadCAM-1 extracellular domain-coated plate; endogenous in cells; host or cells: RPMI8866 cells
T1 sequence (P13612 34-1032): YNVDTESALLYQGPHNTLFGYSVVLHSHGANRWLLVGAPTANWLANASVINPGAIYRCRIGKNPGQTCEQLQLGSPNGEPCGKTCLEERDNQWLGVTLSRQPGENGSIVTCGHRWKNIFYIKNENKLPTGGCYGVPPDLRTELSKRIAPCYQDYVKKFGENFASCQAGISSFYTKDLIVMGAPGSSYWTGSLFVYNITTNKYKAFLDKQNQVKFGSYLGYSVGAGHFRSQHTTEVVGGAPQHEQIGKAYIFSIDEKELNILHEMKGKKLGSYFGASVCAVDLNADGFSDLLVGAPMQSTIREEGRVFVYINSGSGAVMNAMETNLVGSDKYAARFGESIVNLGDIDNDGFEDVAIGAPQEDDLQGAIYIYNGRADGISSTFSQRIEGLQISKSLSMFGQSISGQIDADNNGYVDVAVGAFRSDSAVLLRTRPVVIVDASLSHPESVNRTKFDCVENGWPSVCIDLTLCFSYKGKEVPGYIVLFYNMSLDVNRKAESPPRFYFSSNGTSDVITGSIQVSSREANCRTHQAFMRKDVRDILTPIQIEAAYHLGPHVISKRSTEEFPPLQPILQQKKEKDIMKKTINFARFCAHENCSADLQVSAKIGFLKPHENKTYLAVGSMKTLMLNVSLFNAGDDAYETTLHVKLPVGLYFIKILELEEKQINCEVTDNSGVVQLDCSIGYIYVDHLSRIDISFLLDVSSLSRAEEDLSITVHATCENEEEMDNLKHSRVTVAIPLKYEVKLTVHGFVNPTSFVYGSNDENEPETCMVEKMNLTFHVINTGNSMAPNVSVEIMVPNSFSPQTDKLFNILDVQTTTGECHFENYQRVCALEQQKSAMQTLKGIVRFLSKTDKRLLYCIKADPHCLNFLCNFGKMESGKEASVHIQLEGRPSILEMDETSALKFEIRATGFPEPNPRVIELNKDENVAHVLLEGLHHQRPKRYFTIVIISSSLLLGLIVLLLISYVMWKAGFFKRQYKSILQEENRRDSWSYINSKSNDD
T1 sequence (P26010 20-798): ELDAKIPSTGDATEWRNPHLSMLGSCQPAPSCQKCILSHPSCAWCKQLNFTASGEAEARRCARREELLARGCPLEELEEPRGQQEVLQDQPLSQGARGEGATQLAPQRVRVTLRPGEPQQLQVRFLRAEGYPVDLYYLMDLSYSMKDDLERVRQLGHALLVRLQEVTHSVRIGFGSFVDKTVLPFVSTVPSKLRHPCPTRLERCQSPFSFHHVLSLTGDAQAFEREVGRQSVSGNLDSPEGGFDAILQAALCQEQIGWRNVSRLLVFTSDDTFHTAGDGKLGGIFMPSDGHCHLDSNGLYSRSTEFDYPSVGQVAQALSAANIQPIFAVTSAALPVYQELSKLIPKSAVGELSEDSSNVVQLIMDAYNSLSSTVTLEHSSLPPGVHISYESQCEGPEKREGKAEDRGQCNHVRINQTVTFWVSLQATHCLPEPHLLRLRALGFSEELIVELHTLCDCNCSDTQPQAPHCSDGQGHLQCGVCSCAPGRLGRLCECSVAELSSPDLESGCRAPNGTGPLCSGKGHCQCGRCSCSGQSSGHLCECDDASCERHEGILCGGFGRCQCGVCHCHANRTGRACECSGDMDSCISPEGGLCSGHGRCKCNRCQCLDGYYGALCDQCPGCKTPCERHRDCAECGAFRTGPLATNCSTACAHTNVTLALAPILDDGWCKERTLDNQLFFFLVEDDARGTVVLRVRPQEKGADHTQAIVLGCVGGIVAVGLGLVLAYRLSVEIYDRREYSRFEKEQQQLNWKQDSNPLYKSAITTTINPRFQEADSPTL
Test: α4β7 Integrin Cell Capture Assay
Type: cell-based
Conditions: capture of α4β7 integrin expressing RPMI8866 cells on recombinant MadCAM-1 extracellular domain-coated plate; DMEM+0.5% FBS+0.5 mM MnCl2; read-out: EC50 α4β7
Method in brief: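 RPMI8866 cells in DMEM + 0.5% FBS + 0.5 mM MnCl2 preincubated with compound 1 h at 37 °C, then allowed to bind 30 min at 37 °C to plates coated with MAdCAM-1 extracellular domain (1.0 μg/mL). Cells fixed with glutaraldehyde, Hoechst-stained, imaged and bound cells counted; EC50 from cell count versus concentration.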

| Structure (SMILES) | pEC50 |
| --- | --- |
| CC[C@@H](Nc1cc(F)c(C(=O)N[C@@H](Cc2ccc(-c3c(OC)cc(C)n(C)c3=O)c3ccccc23)C(=O)O)c(F)c1)C(F)(F)F (single isomer, unassigned) [Example 131] | 9.30 |
| COc1cccc(OC)c1-c1ccc(C[C@H](NC(=O)c2c(F)cc(NS(=O)(=O)c3ccc(-c4ccnc(F)c4)cc3)cc2F)C(=O)O)c2ncccc12 [Example 101, (S)-2-(2,6-difluoro-4-((4-(2-fluoropyridin-4-yl)phenyl)sulfonamido)benzamido)-3-(5-(2,6-dimethoxyphenyl)quinolin-8-yl)propanoic acid] | 8.77 |
| Cc1cc(N2CCOC[C@@H]2C(F)(F)F)cc(F)c1C(=O)N[C@@H](Cc1ccc(-n2c(=O)c3ccncc3n(C)c2=O)n2nccc12)C(=O)O [Example 180] | 10.05 |
| Cc1cc(C(F)(F)F)c(-c2ccc(C[C@H](NC(=O)c3c(F)cc(N4CCOC[C@@H]4C(F)(F)F)cc3F)C(=O)O)c3ncccc23)c(=O)n1C (single isomer, unassigned) [Example 86] | 9.52 |
| Cc1cc(C(F)(F)F)c(-c2ccc(C[C@H](NC(=O)c3c(F)cc(N4CCOC[C@@H]4C(F)(F)F)cc3F)C(=O)O)c3nccnc23)c(=O)n1C (atropisomer, axis not shown) [Example 179] | 10.00 |
| Cc1c(-c2ccc(C[C@H](NC(=O)c3c(Cl)cccc3Cl)C(=O)O)c3ncccc23)c(=O)n(C)c2ccc(F)cc12 (single isomer, unassigned) [Example 11] | 9.30 |
| Cc1c(-c2ccc(C[C@H](NC(=O)c3c(Cl)cccc3Cl)C(=O)O)c3ncccc23)c(=O)n(C)c2ccc(C3CC3)cc12 [Example 71, (S)-3-(6-cyclopropyl-1,4-dimethyl-2-oxo-1,2-dihydro-[3,5′-biquinolin]-8′-yl)-2-(2,6-dichlorobenzamido)propanoic acid] | 7.81 |
| COc1cccc(OC)c1-c1ccc(C[C@H](NC(=O)c2c(F)cc(NS(=O)(=O)c3ccc(-n4cncn4)cc3)cc2F)C(=O)O)c2ccccc12 [Example 104, (S)-2-(4-((4-(1H-1,2,4-triazol-1-yl)phenyl)sulfonamido)-2,6-difluorobenzamido)-3-(4-(2,6-dimethoxyphenyl)naphthalen-1-yl)propanoic acid] | 9.10 |
| Cc1c(-c2ccc(C[C@H](NC(=O)c3c(Cl)cccc3Cl)C(=O)O)c3ccccc23)c(=O)n(C)c(=O)n1C (single isomer, unassigned) [Example 110] | 7.85 |
| COc1cc(F)c(F)cc1-c1ccc(C[C@H](NC(=O)c2c(Cl)cccc2Cl)C(=O)O)c2nccc(C)c12 (single isomer, unassigned) [Example 98] | 6.33 |
| COc1cc(F)c(F)cc1-c1ccc(C[C@H](NC(=O)c2c(F)cccc2F)C(=O)O)c2nccc(Cl)c12 [Example 92, (S)-3-(4-chloro-5-(4,5-difluoro-2-methoxyphenyl)quinolin-8-yl)-2-(2,6-difluorobenzamido)propanoic acid] | 7.05 |
| CCOCc1cc(OC)c(-c2ccc(C[C@@H](NC(=O)c3c(F)cc(NS(=O)(=O)c4ccc(-c5ccnc(F)c5)cc4)cc3F)C(=O)O)c3cnn(C)c23)c(OC)c1 (single isomer, unassigned) [Example 148] | 8.44 |
| CCOCc1cc(OC)c(-c2ccc(C[C@H](NC(=O)c3c(F)cc(NS(=O)(=O)c4ccc(-c5ccnc(F)c5)cc4)cc3F)C(=O)O)c3ncccc23)c(OC)c1 [Example 102, (S)-2-(2,6-difluoro-4-((4-(2-fluoropyridin-4-yl)phenyl)sulfonamido)benzamido)-3-(5-(4-(ethoxymethyl)-2,6-dimethoxyphenyl)quinolin-8-yl)propanoic acid] | 9.00 |
| CCOCc1cc(OC)c(-c2ccc(CC(NC(=O)c3c(F)cc(NS(=O)(=O)c4ccc(-c5ccnc(F)c5)cc4)cc3F)C(=O)O)c3ccncc23)c(OC)c1 (stereo not shown) [Example 160, 2-(2,6-difluoro-4-((4-(2-fluoropyridin-4-yl)phenyl)sulfonamido)benzamido)-3-(8-(4-(ethoxymethyl)-2,6-dimethoxyphenyl)isoquinolin-5-yl)propanoic acid] | 9.22 |
| CC[C@@H](Nc1cc(F)c(C(=O)N[C@@H](Cc2ccc(-c3c(C)n(C)c(=O)n(C)c3=O)c3cccnc23)C(=O)O)c(F)c1)C(F)(F)F (single isomer, unassigned) [Example 9] | 8.39 |

The remaining lines, values ahead:

| pEC50 | Structure (SMILES) |
| --- | --- |
| 7.07 | O=C(N[C@@H](Cc1ccc(-c2nccnc2C(F)(F)F)c2cccnc12)C(=O)O)c1c(Cl)cccc1Cl [Example 15, (S)-2-(2,6-dichlorobenzamido)-3-(5-(3-(trifluoromethyl)pyrazin-2-yl)quinolin-8-yl)propanoic acid] |
| 8.08 | COc1cnn(C)c(=O)c1-c1ccc(C[C@H](NC(=O)c2c(Cl)cccc2Cl)C(=O)O)c2ncccc12 (single isomer, unassigned) [Example 73] |
| 7.31 | O=C(N[C@@H](Cc1ccc(-c2cccc3c2OCCC3)c2cccnc12)C(=O)O)c1c(Cl)cccc1Cl [Example 24, (S)-3-(5-(chroman-8-yl)quinolin-8-yl)-2-(2,6-dichlorobenzamido)propanoic acid] |
| 6.82 | COc1c(F)cc(F)cc1-c1ccc(C[C@H](NC(=O)c2c(Cl)cccc2Cl)C(=O)O)c2ncccc12 [Example 42, (S)-2-(2,6-dichlorobenzamido)-3-(5-(3,5-difluoro-2-methoxyphenyl)quinolin-8-yl)propanoic acid] |
| 8.04 | COc1cnn(C)c(=O)c1-c1ccc(C[C@H](NC(=O)c2c(Cl)cccc2Cl)C(=O)O)c2ncccc12 [Example 69, (S)-2-(2,6-dichlorobenzamido)-3-(5-(5-methoxy-2-methyl-3-oxo-2,3-dihydropyridazin-4-yl)quinolin-8-yl)propanoic acid] |
| 8.22 | COc1ccn(C)c(=O)c1-c1ccc(CC(NC(=O)c2c(Cl)cccc2Cl)C(=O)O)c2ncccc12 (stereo not shown) [Example 32, 2-(2,6-Dichlorobenzamido)-3-(5-(4-methoxy-1-methyl-2-oxo-1,2-dihydropyridin-3-yl)quinolin-8-yl)propanoic acid] |
| 8.68 | Cc1c(-c2ccc(C[C@H](NC(=O)c3c(Cl)cccc3Cl)C(=O)O)c3ncccc23)c(=O)n(C)c2ccccc12 (single isomer, unassigned) [Example 48] |
| 8.24 | Cn1c(=O)c(-c2ccc(C[C@H](NC(=O)c3c(Cl)cccc3Cl)C(=O)O)c3ncccc23)cc2ccccc21 [Example 21, (S)-2-(2,6-dichlorobenzamido)-3-(1-methyl-2-oxo-1,2-dihydro-[3,5′-biquinolin]-8′-yl)propanoic acid] |
| 8.57 | Cn1c2c(c(C(F)(F)F)c(-c3ccc(C[C@H](NC(=O)c4c(Cl)cccc4Cl)C(=O)O)c4ncccc34)c1=O)CCC2 [Example 68, (S)-2-(2,6-dichlorobenzamido)-3-(5-(1-methyl-2-oxo-4-(trifluoromethyl)-2,5,6,7-tetrahydro-1H-cyclopenta[b]pyridin-3-yl)quinolin-8-yl)propanoic acid] |
| 7.17 | COc1cc(F)cnc1-c1ccc(C[C@H](NC(=O)c2c(Cl)cccc2Cl)C(=O)O)c2ncccc12 [Example 13, (S)-2-(2,6-dichlorobenzamido)-3-(5-(5-fluoro-3-methoxypyridin-2-yl)quinolin-8-yl)propanoic acid] |
